Source: patent US20250115598A1 (Anaxis Pharma Pty Ltd, priority 2021, published 2025)

Legend:
[1] = biological target: human RIPK3 (Homo sapiens (Human), UniProt Q9Y572); assay: KINOMEscan binding assay, human RIPK3; details: Table 21
Outline: (§1)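 In this assay, compounds displace DNA- or phage-tagged kinase from an immobilized ligand, and eluted kinase is quantified by qPCR.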

[2] = biological target: human RIPK1 (Homo sapiens (Human), UniProt Q13546); assay: KINOMEscan binding assay, human RIPK1; details: Table 21
Chain of human RIPK1 (Q13546 whole entry): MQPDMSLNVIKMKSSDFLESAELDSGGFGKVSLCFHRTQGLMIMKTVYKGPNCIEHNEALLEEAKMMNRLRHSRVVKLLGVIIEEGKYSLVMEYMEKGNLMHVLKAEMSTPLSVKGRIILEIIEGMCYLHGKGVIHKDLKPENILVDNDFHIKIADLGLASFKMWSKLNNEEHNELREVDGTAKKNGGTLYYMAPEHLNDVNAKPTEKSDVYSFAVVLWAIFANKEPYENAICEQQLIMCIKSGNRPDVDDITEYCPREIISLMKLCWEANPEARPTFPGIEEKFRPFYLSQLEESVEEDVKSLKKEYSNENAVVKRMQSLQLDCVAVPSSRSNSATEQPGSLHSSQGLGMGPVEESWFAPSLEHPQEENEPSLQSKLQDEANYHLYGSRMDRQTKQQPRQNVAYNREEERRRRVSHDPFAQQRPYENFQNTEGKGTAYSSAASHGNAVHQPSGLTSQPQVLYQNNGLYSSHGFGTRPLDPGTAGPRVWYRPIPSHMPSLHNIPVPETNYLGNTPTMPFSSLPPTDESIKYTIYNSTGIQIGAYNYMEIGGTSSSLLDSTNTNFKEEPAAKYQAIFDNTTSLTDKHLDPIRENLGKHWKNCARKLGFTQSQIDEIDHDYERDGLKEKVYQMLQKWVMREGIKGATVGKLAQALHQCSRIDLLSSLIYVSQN
Outline: as §1

[3] = biological target: human MLKL (full length) (Homo sapiens (Human), UniProt Q8NB16); assay: KINOMEscan binding assay, human MLKL (full length); details: KINOMEscan, Table 21; read-out: Human MLKL (full-length) (KD)
Chain of human MLKL (full length) (Q8NB16 whole entry): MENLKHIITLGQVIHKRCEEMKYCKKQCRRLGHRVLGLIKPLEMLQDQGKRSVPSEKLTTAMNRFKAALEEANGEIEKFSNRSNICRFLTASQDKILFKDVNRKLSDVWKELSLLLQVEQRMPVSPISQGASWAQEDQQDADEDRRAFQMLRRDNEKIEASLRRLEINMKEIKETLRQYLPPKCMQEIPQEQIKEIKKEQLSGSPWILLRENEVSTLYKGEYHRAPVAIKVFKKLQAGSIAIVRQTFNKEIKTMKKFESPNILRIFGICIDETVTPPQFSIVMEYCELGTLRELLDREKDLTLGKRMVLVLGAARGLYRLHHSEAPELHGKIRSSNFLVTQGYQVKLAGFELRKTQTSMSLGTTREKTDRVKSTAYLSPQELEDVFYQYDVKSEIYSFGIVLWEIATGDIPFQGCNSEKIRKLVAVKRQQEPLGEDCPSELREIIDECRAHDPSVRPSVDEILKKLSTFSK
Outline: as §1

Chain of human RIPK3 (Q9Y572 whole entry): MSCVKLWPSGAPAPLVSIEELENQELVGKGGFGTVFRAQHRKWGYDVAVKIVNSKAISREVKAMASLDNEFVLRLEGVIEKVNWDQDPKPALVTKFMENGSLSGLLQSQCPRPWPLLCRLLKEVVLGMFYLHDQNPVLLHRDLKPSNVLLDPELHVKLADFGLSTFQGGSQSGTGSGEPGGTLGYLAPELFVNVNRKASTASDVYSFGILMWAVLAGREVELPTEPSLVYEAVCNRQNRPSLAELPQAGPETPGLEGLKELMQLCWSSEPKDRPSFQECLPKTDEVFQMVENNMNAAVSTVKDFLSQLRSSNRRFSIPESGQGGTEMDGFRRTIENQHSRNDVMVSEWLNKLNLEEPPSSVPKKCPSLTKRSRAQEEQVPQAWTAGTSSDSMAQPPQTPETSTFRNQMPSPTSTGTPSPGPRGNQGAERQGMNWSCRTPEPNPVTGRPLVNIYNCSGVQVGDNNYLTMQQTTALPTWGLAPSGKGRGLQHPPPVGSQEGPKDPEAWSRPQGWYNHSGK

Compound | Kd [1] | Kd [2] | Kd [3]
CC(C)n1cc(-c2cnc(N)c3c(-c4ccc(NS(=O)(=O)C(F)F)c(O[C@@H](C)c5ccc(F)cc5)c4)nn(C)c23)cn1 [Compound 31, (S)-N-(4-(4-amino-7-(1-isopropyl-1H-pyrazol-4-yl)-1-methyl-1H-pyrazolo[4,3-c]pyridin-3-yl)-2-(1-(4-fluorophenyl)ethoxy)phenyl)-1,1-difluoromethanesulfonamide] | > 10 µM | > 10 µM | < 0.001 µM
C[C@H](Oc1cc(-c2nn(C)c3c(-c4ccncn4)cnc(N)c23)ccc1NS(=O)(=O)C(F)F)c1ccc(F)cc1 [Compound 40, (S)—N-(4-(4-amino-1-methyl-7-(pyrimidin-4-yl)-1H-pyrazolo[4,3-c]pyridin-3-yl)-2-(1-(4-fluorophenyl)ethoxy)phenyl)-1,1-difluoromethanesulfonamide] | > 10 µM | > 10 µM | < 0.001 µM
CC(C)N(C)CC(C)n1cc(-c2cnc(N)c3c(-c4ccc(NS(=O)(=O)C(F)F)c(O[C@@H](C)c5ccc(F)cc5)c4)nn(C)c23)cn1 (stereo partly drawn) [Compound 101, N-(4-(4-amino-7-(1-(1-(isopropyl(methyl)amino)propan-2-yl)-1H-pyrazol-4-yl)-1-methyl-1H-pyrazolo[4,3-c]pyridin-3-yl)-2-((S)-1-(4-fluorophenyl)ethoxy)phenyl)-1,1-difluoromethanesulfonamide] | > 10 µM | > 10 µM | < 0.001 µM
C[C@H](Oc1cc(-c2nn(C)c3c(-c4cnn(C5CCNCC5)c4)cnc(N)c23)ccc1NS(=O)(=O)C(F)F)c1ccc(F)cc1 [Compound 59, N-(4-{4-amino-1-methyl-7-[1-(piperidin-4-yl)-1H-pyrazol-4-yl]-1H-pyrazolo[4,3-c]pyridin-3-yl}-2-[(1 S)-1-(4-fluorophenyl)ethoxy]phenyl)-1,1-difluoromethanesulfonamide] | > 10 µM | > 10 µM | < 0.001 µM
CC(C)n1nc(-c2ccc(NS(=O)(=O)C(F)F)c(O[C@@H](C)c3ccc(F)cc3)c2)c2c(N)ncc(-c3ccncc3)c21 [Compound 50, (S)-N-(4-(4-amino-1-isopropyl-7-(pyridin-4-yl)-1H-pyrazolo[4,3-c]pyridin-3-yl)-2-(1-(4-fluorophenyl)ethoxy)phenyl)-1,1-difluoromethane-sulfonamide] | > 10 µM | > 10 µM | < 0.001 µM
C[C@H](Oc1cc(-c2nn(C)c3c(-c4cnn(C5CN(C)C5)c4)cnc(N)c23)ccc1NS(=O)(=O)C(F)F)c1ccc(F)cc1 [Compound 92, (S)-N-(4-(4-amino-1-methyl-7-(1-(1-methylazetidin-3-yl)-1H-pyrazol-4-yl)-1H-pyrazolo[4,3-c]pyridin-3-yl)-2-(1-(4-fluorophenyl)ethoxy)phenyl)-1,1-difluoromethanesulfonamide] | > 10 µM | > 10 µM | < 0.001 µM
Cc1cc(-c2ccc(NS(=O)(=O)C(F)F)c(OCc3ccc(F)cc3)c2)c2c(N)n[nH]c2n1 [Compound 70, N-(4-(3-Amino-6-methyl-1H-pyrazolo[3,4-b]pyridin-4-yl)-2-((4-fluorophenyl)methoxy)phenyl)-1,1-difluoromethanesulfonamide] | > 10 µM | > 10 µM | < 0.001 µM
C[C@H](Oc1cc(-c2nn(C)c3c(-c4ccncc4)cnc(N)c23)ccc1NS(=O)(=O)C(F)F)c1ccc(F)cc1 [Compound 18, (S)-N-(4-(4-amino-1-methyl-7-(pyridin-4-yl)-1H-pyrazolo[4,3-c]pyridin-3-yl)-2-(1-(4-fluorophenyl)ethoxy)phenyl)-1,1-difluoromethanesulfonamide] | > 10 µM | > 10 µM | < 0.001 µM
C[C@H](Oc1cc(-c2nn(C)c3c(-c4cnn(C5(CC#N)COC5)c4)cnc(N)c23)ccc1NS(=O)(=O)C(F)F)c1ccc(F)cc1 [Compound 98, (S)-N-(4-(4-amino-7-(1-(3-(cyanomethyl)oxetan-3-yl)-1H-pyrazol-4-yl)-1-methyl-1H-pyrazolo[4,3-c]pyridin-3-yl)-2-(1-(4-fluorophenyl)ethoxy)phenyl)-1,1-difluoromethanesulfonamide] | > 10 µM | > 10 µM | < 0.001 µM
C[C@H](Oc1cc(-c2nn(C)c3c(-c4cnn(CCN5CC(C)(C)C5)c4)cnc(N)c23)ccc1NS(=O)(=O)C(F)F)c1ccc(F)cc1 [Compound 75, (S)-N-(4-(4-amino-7-(1-(2-(3,3-dimethylazetidin-1-yl)ethyl)-1H-pyrazol-4-yl)-1-methyl-1H-pyrazolo[4,3-c]pyridin-3-yl)-2-(1-(4-fluorophenyl)ethoxy)phenyl)-1,1-difluoromethanesulfonamide] | > 10 µM | > 10 µM | < 0.001 µM
Cc1cc(-c2cnc(N)c3c(-c4ccc(NS(=O)(=O)C(F)F)c(O[C@@H](C)c5ccc(F)cc5)c4)nn(C)c23)ccn1 [Compound 24, (S)-N-(4-(4-amino-1-methyl-7-(2-methylpyridin-4-yl)-1H-pyrazolo[4,3-c]pyridin-3-yl)-2-(1-(4-fluorophenyl)ethoxy)phenyl)-1,1-difluoromethanesulfonamide] | > 10 µM | > 10 µM | < 0.001 µM
C[C@H](Oc1cc(-c2nn(C)c3c(-c4cnn(C5CC6CCC(C5)N6C)c4)cnc(N)c23)ccc1NS(=O)(=O)C(F)F)c1ccc(F)cc1 (stereo partly drawn) [Compound 73, N-(4-(4-amino-1-methyl-7-(1-(8-methyl-8-azabicyclo[3.2.1]octan-3-yl)-1H-pyrazol-4-yl)-1H-pyrazolo[4,3-c]pyridin-3-yl)-2-((S)-1-(4-fluorophenyl)ethoxy)phenyl)-1,1-difluoromethanesulfonamide] | > 10 µM | > 10 µM | < 0.001 µM
C[C@H](Oc1cc(-c2nn(C)c3c(-c4cnn(C5(C#N)CC5)c4)cnc(N)c23)ccc1NS(=O)(=O)C(F)F)c1ccc(F)cc1 [Compound 96, N-(4-{4-amino-7-[1-(1-cyanocyclopropyl)-1H-pyrazol-4-yl]-1-methyl-1H-pyrazolo[4,3-c]pyridin-3-yl}-2-[(1S)-1-(4-fluorophenyl)ethoxy]phenyl)-1,1-difluoromethanesulfonamide] | > 10 µM | > 10 µM | < 0.001 µM

Second part, the compound after the results:

Kd [1] | Kd [2] | Kd [3] | Compound
> 10 µM | > 10 µM | < 0.001 µM | Cn1nc(-c2ccc(NS(=O)(=O)C(F)F)c(OCC3CCCCC3)c2)c2c(N)ncc(-c3cnn(C4CCOCC4)c3)c21 [Compound 150, N-(4-(4-amino-1-methyl-7-(1-(tetrahydro-2H-pyran-4-yl)-1H-pyrazol-4-yl)-1H-pyrazolo[4,3-c]pyridin-3-yl)-2-(cyclohexyl-methoxy)phenyl)-1,1-difluoromethane-sulfonamide]
> 10 µM | > 10 µM | < 0.001 µM | C[C@H](Oc1cc(-c2nn(C)c3c(-c4cnn(C5CC(C)(C)N(C)C(C)(C)C5)c4)cnc(N)c23)ccc1NS(=O)(=O)C(F)F)c1ccc(F)cc1 [Compound 162, (S)-N-(4-(4-amino-1-methyl-7-(1-(1,2,2,6,6-pentamethylpiperidin-4-yl)-1H-pyrazol-4-yl)-1H-pyrazolo[4,3-c]pyridin-3-yl)-2-(1-(4-fluorophenyl)ethoxy)phenyl)-1,1-difluoromethanesulfonamide]
> 10 µM | > 10 µM | < 0.001 µM | Cn1nc(-c2ccc(NS(=O)(=O)C(F)F)cc2OCc2cccc(F)c2)c2c(N)ncc(-c3cnn(C4CCOCC4)c3)c21 [Compound 135, N-(4-(4-amino-1-methyl-7-(1-(tetrahydro-2H-pyran-4-yl)-1H-pyrazol-4-yl)-1H-pyrazolo[4,3-c]pyridin-3-yl)-3-((3-fluorobenzyl)oxy)phenyl)-1,1-difluoro-methanesulfonamide]
> 10 µM | > 10 µM | < 0.001 µM | Cn1nc(-c2ccc(NS(=O)(=O)C(F)F)c(OCc3ncco3)c2)c2c(N)ncc(-c3cnn(C4CCOCC4)c3)c21 [Compound 151, N-(4-(4-amino-1-methyl-7-(1-(tetrahydro-2H-pyran-4-yl)-1H-pyrazol-4-yl)-1H-pyrazolo[4,3-c]pyridin-3-yl)-2-(oxazol-2-yl-methoxy)phenyl)-1,1-difluoromethane-sulfonamide]
> 10 µM | > 10 µM | < 0.001 µM | C[C@H](Oc1cc(-c2nn(C)c3c(-c4cnn(C5CCOCC5)c4)cnc(N)c23)ccc1NS(=O)(=O)C(F)F)c1cccc(Cl)c1 [Compound 122]
> 10 µM | > 10 µM | < 0.001 µM | C[C@H](Oc1cc(-c2nn(C)c3c(-c4cnn(C5C[C@H]6CNC[C@H]6C5)c4)cnc(N)c23)ccc1NS(=O)(=O)C(F)F)c1ccc(F)cc1 (stereo partly drawn) [Compound 163, N-(4-(4-amino-1-methyl-7-(1-((3aR,6aS)-octahydrocyclo-penta[c]pyrrol-5-yl)-1H-pyrazol-4-yl)-1H-pyrazolo[4,3-c]pyridin-3-yl)-2-((S)-1-(4-fluoropohenyl)eth-oxy)phenyl)-1,1-difluoromethane-sulfonamide]
> 10 µM | > 10 µM | < 0.001 µM | CC(n1cc(-c2cnc(N)c3c(-c4ccc(NS(=O)(=O)C(F)F)c(O[C@@H](C)c5ccc(F)cc5)c4)nn(C)c23)cn1)C(F)(F)F (stereo partly drawn) [Compound 142, N-(4-(4-amino-1-methyl-7-(1-(1,1,1-trifluoropropan-2-yl)-1H-pyrazol-4-yl)-1H-pyrazolo[4,3-c]pyridin-3-yl)-2-((S)-1-(4-fluorophenyl)ethoxy)phenyl)-1,1-difluoromethanesulfonamide]
> 10 µM | > 10 µM | < 0.001 µM | COCC(Oc1cc(-c2nn(C)c3c(-c4cnn(C5CCOCC5)c4)cnc(N)c23)ccc1NS(=O)(=O)C(F)F)c1ccc(F)cc1 (racemic) [Compound 102, N-(4-(4-amino-1-methyl-7-(1-(tetrahydro-2H-pyran-4-yl)-1H-pyrazol-4-yl)-1H-pyrazolo[4,3-c]pyridin-3-yl)-2-(1-(4-fluorophenyl)-2-methoxyethoxy)phenyl)-1,1-difuoromethane-sulfonamide]
